{
  "source": "patent US12397016B2",
  "about": "“Sulfated oligosaccharides having anti-inflammatory activity” (The University of North Carolina at Chapel Hill, priority 2017, dated 2025)",
  "tested_on": "APAP-induced liver injury in mice",
  "test": "Delayed treatment 6 h post-APAP, comparison with NAC",
  "format": "in vivo, mouse",
  "details": "read at 24 h, FIG. 5D",
  "protocol": "To compare the 18-mer's effectiveness to N-acetyl cysteine (NAC), 300 mg kg^−1 NAC at pH 7.5 in sterile saline was injected intraperitoneal 30 min post-APAP. In a separate experiment, 300 mg kg^−1 NAC or 0.34 mg/kg 18-mer were administered 6 h post-APAP, then at 18 h post-APAP, 0.17 mg kg^−1 18-mer was administered to the 18-mer treated group. At 24 h post-APAP, mice were euthanized and blood and liver tissue were collected.\nPlasma ALT was measured using the ALT Infinity reagent (Thermo Fisher Scientific) following the manufacturer's instructions. Plasma TNF-α was measured using Mouse TNF-α DuoSet Kit (R&D Systems, Minneapolis, Minnesota, United States of America) according to the manufacturer's instructions. Plasma HMGB1 levels were determined using HMGB1 ELISA Kit (Tecan US of Tecan Trading AG, Mannedorf, Switzerland) according to the manufacturer's instructions. Plasma syndecan-1 levels were determined using Mouse Syndecan-1 ELISA (CellSciences) according to manufacturer's instructions. Hepatic GSH levels were determined using Glutathione Assay Kit (Cayman Chemicals, Ann Arbor, Michigan, United States of America) according to the manufacturer's instructions.",
  "note": "“Also recorded” adds a separate entry of the source.",
  "data": [
    {"compound": "CC(=O)N[C@@H](CS)C(=O)O", "note": "[NAC, N-acetyl-cysteine]", "values": [
      {"measurement": "protective effect (ALT) when administered six hours post-APAP", "result": "loses its protective effect; also recorded: loses effectiveness"}
    ]}
  ]
}
